# Reference: article PMC11183015, “In vivo stable ^211At-labeled prostate-specific membrane antigen-targeted tracer using a neopentyl glycol structure” (EJNMMI Radiopharmacy and Chemistry, 2024)
# Marks after values point to notes of the source that are not given here.
# Assays:
# [1] = Lipophilicity (log D7.4), 1-octanol/PBS pH 7.4; assay type: physicochemical
# Protocol: [^125I]I-NpG-D-PSMA (3.7 kBq) was mixed with equal amounts (3.0 mL) of 1-octanol and PBS buffer (pH 7.4). The mixture was vortexed for 1 min and allowed to stand for 1 min. After repeating the procedure five times, the mixture was centrifuged at 1,500 g (3740, Kubota, Tokyo) for 10 min. Samples (0.2-2 mL) were taken from each phase and their radioactivity was measured with an auto-well γ-counter. The partition coefficient was determined by calculating the ratio of the counts per minute in the 1-octanol phase to that in the buffer phase and expressed as common logarithm. The results represent the mean of three measurements.
# PSMA = PSMA (Homo sapiens, UniProt Q04609); experiment: Blocking study with 2-PMPA in tumor-bearing mice; assay type: in vivo, mouse; design: Tumor accumulation of [^125I]I-NpG-D-PSMA with or without 2-PMPA; from tissue; host or cells: LNCaP xenograft tumor in male BALB/c-nu/nu mice; conditions: LNCaP tumor-bearing mice, 2-PMPA 50 mg/kg coinjected, 1 h
# Protocol: (§1) Biodistribution studies were conducted using male BALB/c-nu/nu mice bearing LNCaP cell xenografts at 1 and 3 h postinjection of [^211At]At-NpG-D-PSMA (100 µL, 37 kBq) and 1 and 6 h postinjection of ^125I-labeled PSMA derivative (100 µL, 11.1 kBq). In the blocking study, [^125I]I-NpG-D-PSMA was coinjected with 2-PMPA (50 mg/kg weight) into tumor-bearing mice via the tail vein. At 1 h postinjection, the mice were sacrificed. The tissues of interest were excised and weighed, and the radioactivity counts in each tissue were determined using an auto-well gamma counter. Each value was expressed as the mean percent injected dose/g tissue ± SD for a group of 3–5 animals, except those for the stomach, intestine, and thyroid.
# LNCaP cell xenografts = experiment: Biodistribution of radioactivity in tumor-bearing mice; assay type: in vivo, mouse; conditions: for Radioactivity in Intestine / Radioactivity in Neck / Radioactivity in Stomach: LNCaP tumor-bearing BALB/c-nu/nu mice; for Radioactivity in Blood / Radioactivity in Bone / Radioactivity in Heart / Radioactivity in Kidney / Radioactivity in Liver / Radioactivity in Lung / Radioactivity in Muscle / Radioactivity in Pancreas / Radioactivity in Spleen / Radioactivity in Tumor: male, BALB/c-nu/nu, mouse, in vivo
# Protocol: Animal studies were conducted in accordance with the institutional guidelines approved by the Chiba University Animal Care Committee (Permit No. 4–183). Five-week-old male ddY mice and BALB/c-nu/nu mice were purchased from Japan SLC Inc. (Hamamatsu, Japan). LNCaP cells (5.0 × 10^6 cells) were suspended in 100 μL of PBS and Matrigel (BD Biosciences, Franklin Lakes, NJ, USA) in a 1:1 ratio. Tumor xenograft models were prepared via subcutaneous injection of this LNCaP cell suspension into BALB/c nude mice.
# as §1
# [2] = Biodistribution of radioactivity in normal mice; assay type: in vivo, mouse
# Protocol: Six-week-old male ddY mice were injected via the tail vein with each radiolabeled PSMA derivative. Animals were sacrificed and the organs were dissected at 10 min, 1 h, 3 h, and 6 h after injection. Metabolic cages were used for housing normal mice. The tissues of interest were excised and weighed, and the radioactivity counts in each tissue were determined using an auto-well gamma counter. Each value was expressed as the mean percent injected dose/g tissue ± SD for a group of 3–5 animals, except those for the stomach, intestine, and thyroid.
# [3] = Analysis of radiometabolites in urine by RP-HPLC; assay type: in vivo, mouse; conditions: normal ddY mice, urine up to 6 h after injection
# Protocol: Urine samples were collected from 6-week-old ddY mice 6 h after injection of each ^125I-labeled PSMA derivative (100 µL, 370 kBq). After ethanol precipitation of proteins, the urine samples were filtered through a polycarbonate membrane (0.45 µm) and analyzed by RP-HPLC (System 2).
# [4] = normal ddY mice, i.v., 6 h, metabolic cages
# Chain of PSMA (Q04609 whole entry): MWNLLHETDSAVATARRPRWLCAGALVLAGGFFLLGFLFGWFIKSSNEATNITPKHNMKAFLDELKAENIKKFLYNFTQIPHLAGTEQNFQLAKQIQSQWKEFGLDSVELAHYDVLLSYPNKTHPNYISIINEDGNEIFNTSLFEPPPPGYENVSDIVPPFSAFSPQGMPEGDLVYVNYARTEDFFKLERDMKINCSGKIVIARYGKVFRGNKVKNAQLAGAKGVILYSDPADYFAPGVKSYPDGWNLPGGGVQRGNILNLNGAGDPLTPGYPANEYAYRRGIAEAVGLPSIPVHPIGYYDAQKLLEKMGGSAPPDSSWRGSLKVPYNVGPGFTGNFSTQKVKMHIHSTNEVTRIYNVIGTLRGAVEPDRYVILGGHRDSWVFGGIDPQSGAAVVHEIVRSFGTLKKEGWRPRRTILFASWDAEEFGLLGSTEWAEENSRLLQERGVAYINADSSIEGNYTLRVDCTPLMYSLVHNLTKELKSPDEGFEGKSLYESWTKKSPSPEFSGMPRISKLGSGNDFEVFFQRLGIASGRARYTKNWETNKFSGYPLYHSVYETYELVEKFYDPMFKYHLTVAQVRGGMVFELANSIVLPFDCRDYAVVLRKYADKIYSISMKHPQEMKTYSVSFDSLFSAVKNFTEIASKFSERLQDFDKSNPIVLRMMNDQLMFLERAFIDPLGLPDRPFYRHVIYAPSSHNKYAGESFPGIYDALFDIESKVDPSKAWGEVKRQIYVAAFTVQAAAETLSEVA
smiles,measurement,setting,value
O=C(O)CCC(NC(=O)NC(CCCCNC(=O)C(Cc1ccc2ccccc2c1)NC(=O)C(CCC(=O)O)NC(=O)C(CCC(=O)O)NC(=O)COCC(CO)(CO)C[125I])C(=O)O)C(=O)O [[^125I]I-NpG-D-PSMA] [listing 1 of 2 here],logD,[1],-3.14 ± 0.03
O=C(O)CCC(NC(=O)NC(CCCCNC(=O)C(Cc1ccc2ccccc2c1)NC(=O)C(CCC(=O)O)NC(=O)C(CCC(=O)O)NC(=O)COCC(CO)(CO)C[125I])C(=O)O)C(=O)O [[^125I]I-NpG-D-PSMA] [listing 2 of 2 here],Accumulation in the tumor and spleen with coinjected 2-PMPA,PSMA,inhibited by 2-PMPA
same,Radioactivity in Intestine,LNCaP cell xenografts; 1 h,1.66 ± 0.29 %ID
same,Radioactivity in Neck,LNCaP cell xenografts; 1 h,0.77 ± 0.17 %ID
same,Radioactivity in Stomach,LNCaP cell xenografts; 1 h,0.19 ± 0.04 %ID
same,Radioactivity in Intestine,LNCaP cell xenografts; 6 h,1.51 ± 0.61 %ID
same,Radioactivity in Neck,LNCaP cell xenografts; 6 h,0.10 ± 0.01 %ID
same,Radioactivity in Stomach,LNCaP cell xenografts; 6 h,0.17 ± 0.10 %ID
same,Radioactivity in Blood,LNCaP cell xenografts; 1 h,0.64 ± 0.04 %ID/g
same,Radioactivity in Bone,LNCaP cell xenografts; 1 h,0.25 ± 0.02 %ID/g
same,Radioactivity in Heart,LNCaP cell xenografts; 1 h,0.89 ± 0.09 %ID/g
same,Radioactivity in Kidney,LNCaP cell xenografts; 1 h,275 ± 17.6 %ID/g
same,Radioactivity in Liver,LNCaP cell xenografts; 1 h,0.79 ± 0.06 %ID/g
same,Radioactivity in Lung,LNCaP cell xenografts; 1 h,2.80 ± 0.09 %ID/g
same,Radioactivity in Muscle,LNCaP cell xenografts; 1 h,0.27 ± 0.05 %ID/g
same,Radioactivity in Pancreas,LNCaP cell xenografts; 1 h,0.84 ± 0.25 %ID/g
same,Radioactivity in Spleen,LNCaP cell xenografts; 1 h,30.5 ± 7.49 %ID/g
same,Radioactivity in Tumor,LNCaP cell xenografts; 1 h,20.4 ± 6.92 %ID/g
same,Radioactivity in Blood,LNCaP cell xenografts; 6 h,0.06 ± 0.03 %ID/g
same,Radioactivity in Bone,LNCaP cell xenografts; 6 h,0.07 ± 0.02 %ID/g
same,Radioactivity in Heart,LNCaP cell xenografts; 6 h,0.10 ± 0.04 %ID/g
same,Radioactivity in Kidney,LNCaP cell xenografts; 6 h,160 ± 89.9 %ID/g
same,Radioactivity in Liver,LNCaP cell xenografts; 6 h,0.07 ± 0.03 %ID/g
same,Radioactivity in Lung,LNCaP cell xenografts; 6 h,0.22 ± 0.09 %ID/g
same,Radioactivity in Muscle,LNCaP cell xenografts; 6 h,0.07 ± 0.04 %ID/g
same,Radioactivity in Pancreas,LNCaP cell xenografts; 6 h,0.12 ± 0.05 %ID/g
same,Radioactivity in Spleen,LNCaP cell xenografts; 6 h,1.55 ± 0.75 %ID/g
same,Radioactivity in Tumor,LNCaP cell xenografts; 6 h,20.8 ± 6.84 %ID/g
same,Radioactivity in Blood,"[2]; normal ddY mice, i.v., 10 min",1.31 ± 0.10^c %ID/g
same,Radioactivity in Bone,"[2]; normal ddY mice, i.v., 10 min",0.71 ± 0.07^c %ID/g
same,Radioactivity in Heart,"[2]; normal ddY mice, i.v., 10 min",0.76 ± 0.08^c %ID/g
same,Radioactivity in Intestine,"[2]; normal ddY mice, i.v., 10 min",2.76 ± 0.02^c %ID
same,Radioactivity in Kidney,"[2]; normal ddY mice, i.v., 10 min",58.5 ± 2.27^c %ID/g
same,Radioactivity in Liver,"[2]; normal ddY mice, i.v., 10 min",0.83 ± 0.12^c %ID/g
same,Radioactivity in Lung,"[2]; normal ddY mice, i.v., 10 min",2.11 ± 0.16^c %ID/g
same,Radioactivity in Muscle,"[2]; normal ddY mice, i.v., 10 min",0.47 ± 0.07^c %ID/g
same,Radioactivity in Neck,"[2]; normal ddY mice, i.v., 10 min",0.48 ± 0.06^c %ID
same,Radioactivity in Pancreas,"[2]; normal ddY mice, i.v., 10 min",0.63 ± 0.15^c %ID/g
same,Radioactivity in Spleen,"[2]; normal ddY mice, i.v., 10 min",2.09 ± 0.83 %ID/g
same,Radioactivity in Stomach,"[2]; normal ddY mice, i.v., 10 min",0.28 ± 0.06 %ID
same,Radioactivity in Blood,"[2]; normal ddY mice, i.v., 1 h",0.18 ±0.02 %ID/g
same,Radioactivity in Bone,"[2]; normal ddY mice, i.v., 1 h",0.30 ± 0.25 %ID/g
same,Radioactivity in Heart,"[2]; normal ddY mice, i.v., 1 h",0.14 ± 0.7 %ID/g
same,Radioactivity in Intestine,"[2]; normal ddY mice, i.v., 1 h",2.97 ± 0.24^c %ID
same,Radioactivity in Kidney,"[2]; normal ddY mice, i.v., 1 h",74.6 ± 14.9^c %ID/g
same,Radioactivity in Liver,"[2]; normal ddY mice, i.v., 1 h",0.17 ± 0.07 %ID/g
same,Radioactivity in Lung,"[2]; normal ddY mice, i.v., 1 h",0.38 ± 0.06 %ID/g
same,Radioactivity in Muscle,"[2]; normal ddY mice, i.v., 1 h",0.11 ± 0.08 %ID/g
same,Radioactivity in Neck,"[2]; normal ddY mice, i.v., 1 h",0.11 ± 0.03^c %ID
same,Radioactivity in Spleen,"[2]; normal ddY mice, i.v., 1 h",0.20 ± 0.01 %ID/g
same,Radioactivity in Stomach,"[2]; normal ddY mice, i.v., 1 h",0.18 ± 0.00 %ID
same,Radioactivity in Blood,"[2]; normal ddY mice, i.v., 3 h",0.04 ± 0.02 %ID/g
same,Radioactivity in Bone,"[2]; normal ddY mice, i.v., 3 h",0.21 ± 0.28 %ID/g
same,Radioactivity in Heart,"[2]; normal ddY mice, i.v., 3 h",0.05 ± 0.04 %ID/g
same,Radioactivity in Intestine,"[2]; normal ddY mice, i.v., 3 h",3.30 ± 0.08^c %ID
same,Radioactivity in Kidney,"[2]; normal ddY mice, i.v., 3 h",22.9 ± 16.5 %ID/g
same,Radioactivity in Liver,"[2]; normal ddY mice, i.v., 3 h",0.05 ± 0.03 %ID/g
same,Radioactivity in Lung,"[2]; normal ddY mice, i.v., 3 h",0.12 ± 0.05 %ID/g
same,Radioactivity in Muscle,"[2]; normal ddY mice, i.v., 3 h",0.05 ± 0.03 %ID/g
same,Radioactivity in Neck,"[2]; normal ddY mice, i.v., 3 h",0.03 ± 0.02^c %ID
same,Radioactivity in Pancreas,"[2]; normal ddY mice, i.v., 3 h",0.20 ± 0.31 %ID/g
same,Radioactivity in Spleen,"[2]; normal ddY mice, i.v., 3 h",0.07 ± 0.05 %ID/g
same,Radioactivity in Stomach,"[2]; normal ddY mice, i.v., 3 h",0.27 ± 0.10^c %ID
same,Radioactivity in Blood,"[2]; normal ddY mice, i.v., 6 h",0.03 ± 0.01 %ID/g
same,Radioactivity in Bone,"[2]; normal ddY mice, i.v., 6 h",0.16 ± 0.17 %ID/g
same,Radioactivity in Heart,"[2]; normal ddY mice, i.v., 6 h",0.03 ± 0.01 %ID/g
same,Radioactivity in Intestine,"[2]; normal ddY mice, i.v., 6 h",6.19 ± 4.27 %ID
same,Radioactivity in Kidney,"[2]; normal ddY mice, i.v., 6 h",17.5 ± 5.43^c %ID/g
same,Radioactivity in Liver,"[2]; normal ddY mice, i.v., 6 h",0.05 ±0.03 %ID/g
same,Radioactivity in Lung,"[2]; normal ddY mice, i.v., 6 h",0.08 ± 0.00^c %ID/g
same,Radioactivity in Muscle,"[2]; normal ddY mice, i.v., 6 h",0.06 ± 0.07 %ID/g
same,Radioactivity in Neck,"[2]; normal ddY mice, i.v., 6 h",0.07 ± 0.09 %ID
same,Radioactivity in Pancreas,"[2]; normal ddY mice, i.v., 6 h",0.09 ± 0.12 %ID/g
same,Radioactivity in Spleen,"[2]; normal ddY mice, i.v., 6 h",0.05 ± 0.05 %ID/g
same,Radioactivity in Stomach,"[2]; normal ddY mice, i.v., 6 h",0.86 ± 0.65 %ID
same,Radioactivity in Feces,[2]; [4],0.66 ± 0.50 %ID
same,Radioactivity in Urine,[2]; [4],30.7 ± 2.85^c %ID
same,Accumulation in the stomach and thyroid (stability against deiodination),[2]; normal mice,low accumulation
same,Form of radioactivity excreted in urine,[3],only intact [^125I]I-NpG-D-PSMA
